Measurements as given in patent US20190375708A1 (VenatoRx Pharmaceuticals, Inc., priority 2018, published 2019).

Columns and labels:
[1] = In vitro cytotoxicity assay (MTT cell viability) in HepG2 cells; assay type: cell-based, human; conditions: human
Outline: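 HepG2 cells incubated 7 days at 37 °C, 5% CO2 with compounds from 30 μM to 1.0 nM (8 half-log dilutions). Viability read as MTT formazan absorbance at 492 nm, normalised to vehicle controls; CC50 from 4-parameter non-linear regression.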

[2] = test system: HBV replication in HepAD38 cells; assay: Anti-HBV replication assay in HepAD38 cells (QPCR of extracellular HBV DNA); assay type: cell-based, HBV (genotype D, serotype ayw); conditions: Hepatitis B virus, 168 h, 7 days incubation, extracellular HBV DNA by QPCR, read-out: Anti-HBV EC50
Outline: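 Steps: seed HepAD38 overnight without tetracycline; refresh medium and add 1 log10 serial dilutions ([…]); incubate 7 days at 37 °C; quantify supernatant HBV DNA by QPCR; derive EC50 from a 4-parameter dose-response fit.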

Structure (SMILES) | CC50 at 7 days [1] [nM] | EC50 [2] [nM]
Cc1cc(NC(=O)c2c(C)c(C(=O)C(=O)N[C@H](C(N)=O)[C@@H](C)O)n(C)c2C)ccc1F [Example 42, 5-(2-(((2S,3R)-1-amino-3-hydroxy-1-oxobutan-2-yl)amino)-2-oxoacetyl)-N-(4-fluoro-3-methylphenyl)-1,2,4-trimethyl-1H-pyrrole-3-carboxamide] | > 30000 | < 50
Cc1cc(NC(=O)c2c(C)c(C(=O)C(=O)NC(C)(C)C(N)=O)n(CCO)c2C)ccc1F [Example 72, 5-(2-((1-amino-2-methyl-1-oxopropan-2-yl)amino)-2-oxoacetyl)-N-(4-fluoro-3-methylphenyl)-1-(2-hydroxyethyl)-2,4-dimethyl-1H-pyrrole-3-carboxamide] | > 30000 | > 1000
Cc1cc(NC(=O)c2c(C)c(C(=O)C(=O)N[C@H]3CC[C@H](CO)CC3)n(C)c2C)ccc1F [Example 675, N-(4-fluoro-3-methylphenyl)-5-(2-(((1r,4r)-4-(hydroxymethyl)cyclohexyl)amino)-2-oxoacetyl)-1,2,4-trimethyl-1H-pyrrole-3-carboxamide] | > 30000 | < 50
CC(C)(C)NC(=O)C(=O)c1cc(C(=O)Nc2ccc(F)c(C#N)c2)c2n1CCOC2 [Example 582, 6-(2-(tert-butylamino)-2-oxoacetyl)-N-(3-cyano-4-fluorophenyl)-3,4-dihydro-1H-pyrrolo[2,1-c][1,4]oxazine-8-carboxamide] | > 30000 | > 1000
Cc1cc(NC(=O)c2c(C)c(C(=O)C(=O)N[C@@H](C(=O)O)C(C)(C)C)n(C)c2C)ccc1F [Example 31, (R)-2-(2-(4-((4-fluoro-3-methylphenyl)carbamoyl)-1,3,5-trimethyl-1H-pyrrol-2-yl)-2-oxoacetamido)-3,3-dimethylbutanoic acid] | > 30000 | 50 to 499
Cc1cc(NC(=O)c2c(Cl)c(C(=O)C(=O)NCc3cnc(N)s3)n3c2CCCC3)ccc1F [Example 503, 3-(2-(((2-aminothiazol-5-yl)methyl)amino)-2-oxoacetyl)-2-chloro-N-(4-fluoro-3-methylphenyl)-5,6,7,8-tetrahydroindolizine-1-carboxamide] | > 30000 | < 50
Cc1cc(NC(=O)c2c(C)c(C(=O)C(=O)NC(C)(C)C)n(C)c2C)cnc1F [Example 112, 5-(2-(tert-butylamino)-2-oxoacetyl)-N-(6-fluoro-5-methylpyridin-3-yl)-1,2,4-trimethyl-1H-pyrrole-3-carboxamide] | > 30000 | 50 to 499
Cc1c(C(=O)Nc2ccc(F)c(F)c2)c(Cl)c(C(=O)C(=O)NC2(C(F)(F)F)CC2)n1C [Example 376, 4-chloro-N-(3,4-difluorophenyl)-1,2-dimethyl-5-(2-oxo-2-((1-(trifluoromethyl)cyclopropyl)amino)acetyl)-1H-pyrrole-3-carboxamide] | 5000 to 30000 | < 50
Cc1cc(NC(=O)c2cc(C(=O)C(=O)NC(C)(C)C)n3c2CN(C(=O)OC(C)(C)C)CC3)ccc1F [Example 587, tert-butyl 6-(2-(tert-butylamino)-2-oxoacetyl)-8-((4-fluoro-3-methylphenyl)carbamoyl)-3,4-dihydropyrrolo[1,2-a]pyrazine-2(1H)-carboxylate] | > 30000 | 50 to 499
Cc1cc(NC(=O)c2c(C)c(C(=O)C(=O)N[C@@H]3CCC[C@H]3O)n(C)c2C)ccc1F [Example 95, N-(4-fluoro-3-methylphenyl)-5-(2-(((1R,2R)-2-hydroxycyclopentyl)amino)-2-oxoacetyl)-1,2,4-trimethyl-1H-pyrrole-3-carboxamide] | > 30000 | < 50
Cc1nnc(C2(NC(=O)C(=O)c3c(C)c(C(=O)Nc4ccc(F)c(C)c4)c(C)n3C)CC2)o1 [Example 182, N-(4-fluoro-3-methylphenyl)-1,2,4-trimethyl-5-(2-((1-(5-methyl-1,3,4-oxadiazol-2-yl)cyclopropyl)amino)-2-oxoacetyl)-1H-pyrrole-3-carboxamide] | > 30000 | < 50
Cc1cc(NC(=O)c2c(C)c(C(=O)C(=O)N[C@]3(C)CC[C@@H](O)CC3)n(C)c2C)ccc1F [Example 273, N-(4-fluoro-3-methylphenyl)-5-(2-(((1r,4r)-4-hydroxy-1-methylcyclohexyl)amino)-2-oxoacetyl)-1,2,4-trimethyl-1H-pyrrole-3-carboxamide] | > 30000 | < 50
CCN(CC)CCNC(=O)C(=O)c1c(C)c(C(=O)Nc2ccc(F)c(C)c2)c(C)n1C [Example 329, 5-(2-((2-(diethylamino)ethyl)amino)-2-oxoacetyl)-N-(4-fluoro-3-methylphenyl)-1,2,4-trimethyl-1H-pyrrole-3-carboxamide] | > 30000 | 500 to 1000
Cc1c(C(=O)Nc2cc(F)c(F)c(F)c2)c(Cl)c(C(=O)C(=O)NC(C)(C)CO)n1C [Example 373, 4-chloro-5-(2-((1-hydroxy-2-methylpropan-2-yl)amino)-2-oxoacetyl)-1,2-dimethyl-N-(3,4,5-trifluorophenyl)-1H-pyrrole-3-carboxamide] | 500 to 4990 | < 50
Cc1cc(NC(=O)c2c(Cl)c(C(=O)C(=O)NCC(C)(C)O)n(C)c2C)ccc1F [Example 364, 4-chloro-N-(4-fluoro-3-methylphenyl)-5-(2-((2-hydroxy-2-methylpropyl)amino)-2-oxoacetyl)-1,2-dimethyl-1H-pyrrole-3-carboxamide] | 5000 to 30000 | < 50
Cc1cc(NC(=O)c2c(C)c(C(=O)C(=O)N[C@@H]3CCOC[C@H]3O)n(CCF)c2C)ccc1F [Example 196, N-(4-fluoro-3-methylphenyl)-1-(2-fluoroethyl)-5-(2-(((3S,4R)-3-hydroxytetrahydro-2H-pyran-4-yl)amino)-2-oxoacetyl)-2,4-dimethyl-1H-pyrrole-3-carboxamide] | > 30000 | 50 to 499
Cc1cc(NC(=O)c2c(C)c(C(=O)C(=O)NC3CCCN(C)CC3)n(C)c2C)ccc1F (stereo not shown) [Example 353, N-(44-fluoro-3-methylphenyl)-1,2,4-trimethyl-5-(2-((1-methylazepan-4-yl)amino)-2-oxoacetyl)-1H-pyrrole-3-carboxamide] | > 30000 | 50 to 499
Cc1c(C(=O)Nc2ccc(F)c(Cl)c2)c2n(c1C(=O)C(=O)N[C@H]1C[C@H](O)C1)CCCC2 [Example 449, N-(3-chloro-4-fluorophenyl)-3-(2-(((1r,3r)-3-hydroxycyclobutyl)amino)-2-oxoacetyl)-2-methyl-5,6,7,8-tetrahydroindoliziine-1-carboxamide] | > 30000 | 50 to 499
O=C(NC1(CO)CCC1)C(=O)c1c(Cl)c(C(=O)Nc2ccc(F)c(Cl)c2)c2n1CCC2 [Example 565, 6-chloro-N-(3-chloro-4-fluorophenyl)-5-(2-((1-(hydroxymethyl)cyclobutyl)amino)-2-oxoacetyl)-2,3-dihydro-1H-pyrrolizine-7-carboxamide] | 5000 to 30000 | < 50
Cc1cc(NC(=O)c2c(C)c(C(=O)C(=O)N[C@@H](C(=O)O)C(C)C)n(C)c2C)ccc1F [Example 101, (2-(4-((4-fluoro-3-methylphenyl)carbamoyl)-1,3,5-trimethyl-1H-pyrrol-2-yl)-2-oxoacetyl)-D-valine] | 5000 to 30000 | > 1000
Cc1cc(NC(=O)c2c(C)c(C(=O)C(=O)NCC(C)(O)c3cccs3)n(C)c2C)ccc1F (stereo not shown) [Example 647, N-(4-fluoro-3-methylphenyl)-5-(2-((2-hydroxy-2-(thiophen-2-yl)propyl)amino)-2-oxoacetyl)-1,2,4-trimethyl-1H-pyrrole-3-carboxamide] | > 30000 | < 50
Cc1cc(NC(=O)c2c(C)c(C(=O)C(=O)N[C@@]3(C)CC[C@@H](O)C3)n(C)c2C)ccc1F [Example 722, N-(4-fluoro-3-methylphenyl)-5-(2-(((1S,3R)-3-hydroxy-1-methylcyclopentyl)amino)-2-oxoacetyl)-1,2,4-trimethyl-1H-pyrrole-3-carboxamide] | > 30000 | < 50
Cc1cc(NC(=O)c2c(C)c(C(=O)C(=O)N[C@@H](C(=O)NCC(C)(C)O)C(C)(C)C)n(C)c2C)ccc1F [Example 87, (R)-N-(4-fluoro-3-methylphenyl)-5-(2-((1-((2-hydroxy-2-methylpropyl)amino)-3,3-dimethyl-1-oxobutan-2-yl)amino)-2-oxoacetyl)-1,2,4-trimethyl-1H-pyrrole-3-carboxamide] | > 30000 | < 50
O=C(N[C@H]1CCC[C@H]1O)C(=O)c1c(Cl)c(C(=O)Nc2ccc(F)c(F)c2)c2n1CCC2 [Example 571, 6-chloro-N-(3,4-difluorophenyl)-5-(2-(((1S,2R)-2-hydroxycyclopentyl)amino)-2-oxoacetyl)-2,3-dihydro-1H-pyrrolizine-7-carboxamide] | > 30000 | 50 to 499
Cc1cc(NC(=O)c2c(C)c(C(=O)C(=O)NC3(C)CCN(C(=O)c4cnn5cccnc45)CC3)n(C)c2C)ccc1F [Example 719, N-(4-fluoro-3-methylphenyl)-1,2,4-trimethyl-5-(2-((4-methyl-1-(pyrazolo[1,5-a]pyrimidine-3-carbonyl)piperidin-4-yl)amino)-2-oxoacetyl)-1H-pyrrole-3-carboxamide] | > 30000 | < 50
Cc1cc(NC(=O)c2c(C)c(C(=O)C(=O)NC3(C)CCN(c4ncccn4)CC3)n(C)c2C)ccc1F [Example 691, N-(4-fluoro-3-methylphenyl)-1,2,4-trimethyl-5-(2-((4-methyl-1-(pyrimidin-2-yl)piperidin-4-yl)amino)-2-oxoacetyl)-1H-pyrrole-3-carboxamide] | > 30000 | < 50
